Experimental data reported in patent US5061794A, “Cephalosporin derivatives, and antibacterial agents” (priority 1986, dated 1991).
Read-outs that look alike come from different tables or passages of the source.

What was measured:
[1] = test system: E. coli CSH(RE45); test: microbe, parasite or virus in culture; assay type: cell-based; conditions: *E. coli CSH(RE45), lactamase-producing strain; 10^6 CFU/ml
Experimental: (§1) The in vitro antibacterial activities of the compounds of the present invention against various microorganisms, were measured by the following agar plate dilution method. One platinum loopfull of each test microorganism incubated overnight in Mueller Hinton broth, was inoculated to Mueller Hinton agar (inoculum size: 10^6 CFU/ml). Such culture media containing various antibiotics in various concentrations were prepared. After incubation at 37° C. for 16 hours, the minimum inhibitory concentrations (MIC: μg/ml) were measured.

[2] = test system: E. coli CSH2 (RK1); test: microbe, parasite or virus in culture; assay type: cell-based; conditions: *E. coli CSH2 (RK1), lactamase-producing strain; 10^6 CFU/ml
Experimental: as §1

[3] = test system: E. cloacae 963; test: in vitro antibacterial activity, agar plate dilution method (MIC); assay type: cell-based; conditions: 10^6 CFU/ml
Experimental: as §1

[4] = test system: E. cloacae Nek 39; test: as above; assay type: cell-based; conditions: 10^6 CFU/ml
Experimental: as §1

[5] = test system: E. coli GN5482; test: as above; assay type: cell-based
Experimental: as §1

[6] = test system: E. coli NIHJ JC2; test: as above; assay type: cell-based
Experimental: as §1

[7] = test system: K. oxytoca GN10650; test: as above; assay type: cell-based; conditions: 10^6 CFU/ml
Experimental: as §1

[8] = test system: K. pneumoniae No. 42; test: as above; assay type: cell-based; conditions: 10^6 CFU/ml
Experimental: as §1

[9] = test system: K. pneumoniae PCI-602; test: as above; assay type: cell-based; conditions: 10^6 CFU/ml
Experimental: as §1

[10] = test system: M. morganii GN5407; test: as above; assay type: cell-based; conditions: *M. morganii GN5407, lactamase-producing strain; 10^6 CFU/ml
Experimental: as §1

[11] = test system: P. vulgaris HX-19; test: as above; assay type: cell-based; conditions: P. vulgaris HX-19; 10^6 CFU/ml
Experimental: as §1

[12] = test system: P. vulgaris No. 33; test: as above; assay type: cell-based; conditions: *P. vulgaris No. 33, lactamase-producing strain; 10^6 CFU/ml
Experimental: as §1

[13] = test system: S. aureus 209P NIHJ-JC1; test: as above; assay type: cell-based; conditions: Staphylococcus aureus, 16 h, read-out: Minimum Inhibitory Concentration (MIC)
Experimental: as §1

[14] = test system: S. marcescens IAM 1184; test: as above; assay type: cell-based; conditions: S. marcescens IAM 1184, 10^6 CFU/ml
Experimental: as §1

[15] = test system: S. marcescens No. 16-2; test: as above; assay type: cell-based; conditions: 10^6 CFU/ml
Experimental: as §1

[16] = test system: Ps. aeruginosa AK 109; test: as above; assay type: cell-based, Pseudomonas aeruginosa; conditions: Ps. aeruginosa AK 109, 10^6 CFU/ml
Experimental: as §1

[17] = test system: Ps. aeruginosa AKR17; test: as above; assay type: cell-based, Pseudomonas aeruginosa; conditions: 10^6 CFU/ml
Experimental: as §1

[18] = test system: Ps. aeruginosa IF03445; test: as above; assay type: cell-based, Pseudomonas aeruginosa; conditions: 10^6 CFU/ml
Experimental: as §1

[19] = test system: Ps. cepacia 23; test: as above; assay type: cell-based, Pseudomonas cepacia; conditions: Ps. cepacia 23, 10^6 CFU/ml
Experimental: as §1

[20] = test system: A. calcoaceticus No. 4; test: as above; assay type: cell-based, Acinetobacter calcoaceticus; conditions: A. calcoaceticus No. 4, 10^6 CFU/ml
Experimental: as §1

Nc1nc(/C(=N/OC(C(=O)O)c2ccccc2)C(=O)N[C@@H]2C(=O)N3C(C(=O)O)=C(CSc4nnc(-c5ccc(O)c(O)c5)o4)CS[C@H]23)cs1 (single isomer, unassigned) [Example 24 DA, disodium 78-[2-(2-aminothiazol-4-yl)-2-(α-carboxylatebenzyloxyimino)acetamido]-3-[5-(3,4-dihydroxyphenyl)-1,3,4-oxadiazol-2-yl]-thiomethyl-3-cephem-4-carboxylate]
Minimum Inhibitory Concentration (MIC) [1]: < 0.006 µg/mL
Minimum Inhibitory Concentration (MIC) [2]: < 0.006 µg/mL
MIC ([3]; Enterobacter cloacae, 963, 16 h, read-out: Minimum Inhibitory Concentration (MIC), E. cloacae 963): 0.05 µg/mL
MIC ([4]; Enterobacter cloacae, NEK39, 16 h, read-out: Minimum Inhibitory Concentration (MIC), *E. cloacae Nek 39, lactamase-producing strain): 0.025 µg/mL
MIC ([5]; Escherichia coli, GN5482, 16 h, read-out: Minimum Inhibitory Concentration (MIC)): 0.39 µg/mL
MIC ([6]; Escherichia coli, NIHJJC2, 16 h, read-out: Minimum Inhibitory Concentration (MIC), E. coli NIHJ JC2, 10^6 CFU/ml, 37° C.): 0.2 µg/mL
MIC ([7]; Klebsiella oxytoca, GN10650, 16 h, read-out: Minimum Inhibitory Concentration (MIC), *K. oxytoca GN10650, lactamase-producing strain): 0.0125 µg/mL
MIC ([8]; Klebsiella pneumoniae, NO.42, 16 h, read-out: Minimum Inhibitory Concentration (MIC), *K. pneumoniae No. 42, lactamase-producing strain): 0.0125 µg/mL
MIC ([9]; Klebsiella pneumoniae, PCI602, 16 h, read-out: Minimum Inhibitory Concentration (MIC), K. pneumoniae PCI-602): < 0.006 µg/mL
Minimum Inhibitory Concentration (MIC) [10]: 0.025 µg/mL
Minimum Inhibitory Concentration (MIC) [11]: < 0.006 µg/mL
Minimum Inhibitory Concentration (MIC) [12]: 0.0125 µg/mL
MIC [13]: 12.5 µg/mL
MIC ([14]; Serratia marcescens, IAM1184, 16 h, read-out: Minimum Inhibitory Concentration (MIC)): 0.025 µg/mL
MIC ([15]; Serratia marcescens, NO.162, 16 h, read-out: Minimum Inhibitory Concentration (MIC), *S. marcescens No. 16-2, lactamase-producing strain): 0.78 µg/mL
MIC ([16]; Pseudomonas aeruginosa, AK109, 16 h, read-out: Minimum Inhibitory Concentration (MIC)): 0.1 µg/mL
MIC ([17]; Pseudomonas aeruginosa, AKR17, 16 h, read-out: Minimum Inhibitory Concentration (MIC), Ps. aeruginosa AKR17): 0.78 µg/mL
MIC ([18]; Pseudomonas aeruginosa, IF03445, 16 h, read-out: Minimum Inhibitory Concentration (MIC), Ps. aeruginosa IF03445): 0.78 µg/mL
MIC ([19]; Burkholderia cepacia, 16 h, read-out: Minimum Inhibitory Concentration (MIC)): < 0.006 µg/mL
MIC ([20]; Acinetobacter calcoaceticus, NO.4, 16 h, read-out: Minimum Inhibitory Concentration (MIC)): 0.05 µg/mL

Nc1nc(/C(=N/OC(C(=O)O)c2ccccc2)C(=O)N[C@@H]2C(=O)N3C(C(=O)O)=C(CSc4nnc(-c5ccc(O)c(O)c5)o4)CS[C@H]23)cs1 (single isomer, unassigned) [Example 24 DB, disodium 78-[2-(2-aminothiazol-4-yl)-2-(α-carboxylatebenzyloxyimino)acetamido]-3-[5-(3,4-dihydroxyphenyl)-1,3,4-oxadiazol-2-yl]-thiomethyl-3-cephem-4-carboxylate]
Minimum Inhibitory Concentration (MIC) [1]: 0.0125 µg/mL
Minimum Inhibitory Concentration (MIC) [2]: 0.0125 µg/mL
MIC ([3]; Enterobacter cloacae, 16 h, E. cloacae 963, read-out: Minimum Inhibitory Concentration (MIC)): 0.1 µg/mL
Minimum Inhibitory Concentration (MIC) ([4]; *E. cloacae Nek 39, lactamase-producing strain): 0.05 µg/mL
Minimum Inhibitory Concentration (MIC) ([5]; *E. coli GN5482, lactamase-producing strain, 10^6 CFU/ml): 0.39 µg/mL
Minimum Inhibitory Concentration (MIC) ([6]; E. coli NIHJ JC2, 10^6 CFU/ml, 37° C., 16 hours): 0.39 µg/mL
Minimum Inhibitory Concentration (MIC) ([7]; *K. oxytoca GN10650, lactamase-producing strain): 0.025 µg/mL
Minimum Inhibitory Concentration (MIC) ([8]; *K. pneumoniae No. 42, lactamase-producing strain): 0.025 µg/mL
Minimum Inhibitory Concentration (MIC) ([9]; K. pneumoniae PCI-602): < 0.006 µg/mL
Minimum Inhibitory Concentration (MIC) [10]: 0.2 µg/mL
Minimum Inhibitory Concentration (MIC) [11]: 0.05 µg/mL
Minimum Inhibitory Concentration (MIC) [12]: 0.1 µg/mL
MIC ([13]; S. aureus 209P NIHJ-JC1, 10^6 CFU/ml, 37° C., 16 hours): 25 µg/mL
Minimum Inhibitory Concentration (MIC) [14]: 0.05 µg/mL
Minimum Inhibitory Concentration (MIC) ([15]; *S. marcescens No. 16-2, lactamase-producing strain): 0.78 µg/mL
Minimum Inhibitory Concentration (MIC) [16]: 0.2 µg/mL
Minimum Inhibitory Concentration (MIC) ([17]; Ps. aeruginosa AKR17): 0.78 µg/mL
Minimum Inhibitory Concentration (MIC) ([18]; Ps. aeruginosa IF03445): 1.56 µg/mL
Minimum Inhibitory Concentration (MIC) [19]: < 0.006 µg/mL
Minimum Inhibitory Concentration (MIC) [20]: 0.05 µg/mL
